This note sets out measurements from patent US20080275086A1, “Dpp-Iv Inhibitors” (priority 2005, published 2008).

pIC50: −log10 of the molar value. Counter-ions that a name gives are not always drawn.

T1 sequence (P27487 31-766): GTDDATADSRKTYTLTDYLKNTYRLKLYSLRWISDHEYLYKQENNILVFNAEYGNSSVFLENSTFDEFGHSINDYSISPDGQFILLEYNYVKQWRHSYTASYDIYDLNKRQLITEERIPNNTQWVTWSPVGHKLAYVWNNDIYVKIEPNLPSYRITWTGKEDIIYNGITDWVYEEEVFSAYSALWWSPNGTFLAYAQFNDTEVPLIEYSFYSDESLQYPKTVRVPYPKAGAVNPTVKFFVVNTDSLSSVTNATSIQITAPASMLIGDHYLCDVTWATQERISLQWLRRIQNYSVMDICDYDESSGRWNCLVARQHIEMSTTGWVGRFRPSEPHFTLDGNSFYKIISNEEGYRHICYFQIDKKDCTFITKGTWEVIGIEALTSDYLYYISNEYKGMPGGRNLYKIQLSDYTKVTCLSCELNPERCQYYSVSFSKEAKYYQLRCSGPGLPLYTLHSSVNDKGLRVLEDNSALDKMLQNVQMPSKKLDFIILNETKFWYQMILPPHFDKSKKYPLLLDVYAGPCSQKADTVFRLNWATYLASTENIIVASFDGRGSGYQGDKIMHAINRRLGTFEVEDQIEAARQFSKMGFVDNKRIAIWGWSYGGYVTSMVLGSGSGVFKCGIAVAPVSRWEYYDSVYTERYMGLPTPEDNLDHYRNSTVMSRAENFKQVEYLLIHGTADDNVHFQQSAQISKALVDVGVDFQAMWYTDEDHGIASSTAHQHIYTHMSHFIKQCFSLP

One assay has as its target T1, DPP-IV (Homo sapiens, UniProt P27487).
T1 construct: Soluble human DPP-IV lacking the transmembrane anchor (Gly31-Pro766); Pre-Pro-alpha-mating factor leader (secretion fusion) (N, cleaved yes); made in house
Kind of assay: Continuous fluorimetric assay of inhibition of DPP-IV peptidase activity (Gly-Pro-AMC cleavage).
Details: not given
The assay is classed as biochemical. The procedure: Inhibition of DPP-IV peptidase activity was monitored with a continuous fluorimetric assay. This assay is based on the cleavage of the substrate Gly-Pro-AMC (Bachem) by DPP-IV, releasing free AMC. The assay is carried out in 96-well microtiterplates. In a total volume of 100 μL, compounds are preincubated with 50 pM DPP-IV employing a buffer containing 10 mM Hepes, 150 mM NaCl, 0.005% Tween 20 (pH 7.4). The reaction is started by the addition of 16 μM substrate and the fluorescence of liberated AMC is detected for 10 minutes at 25° C. with a fluorescence reader (BMG-Fluostar; BMG-Technologies) using an excitation wavelength of 370 nm and an emission wavelength of 450 nm. The final concentration of DMSO is 1%. The inhibitory potential of the compounds were determined.
Soluble human DPP-IV lacking the transmembrane anchor (Gly31-Pro766) was expressed in a recombinant YEAST-strain as Pre-Pro-alpha-mating fusion. The secreted product (rhuDPP-IV-Gly31-Pro766) was purified from fermentation broth (>90% purity) and used for inhouse screening.
By pIC50 is commonly meant the negative decadic logarithm of the IC50, by convention in mol/L. For the molecule `N[C@@H](CC(=O)N1CCC(N2C(=O)Cc3ccccc32)CC1)Cc1ccccc1F` [Example 45], the negative-log IC50 (pIC50) is over 6.30.

Regarding `N#CC1(c2ccccc2)CCN(C(=O)C[C@H](N)Cc2ccccc2F)CC1` [Example 5], the pIC50 was over 6.30.

Still in this assay, the particulars now being: 50 pM DPP-IV, 16 μM Gly-Pro-AMC, pH 7.4, 25° C.; values grouped in 2 classes; read-out: IC50 for inhibition of DPP-IV peptidase activity.
As for `N[C@@H](CC(=O)N1CCCC1Cc1ccccn1)Cc1ccccc1F` (some centres unmarked) [Example 18], the pIC50 was over 6.30.

For the molecule `N[C@@H](CC(=O)N1CCC(Oc2ccccc2)CC1)Cc1ccccc1F` [Example 20], the negative-log IC50 (pIC50) was over 6.30.

Take `N[C@@H](CC(=O)N1CCC(c2nnc(-c3ccccc3)o2)CC1)Cc1ccccc1F` [Example 21]: the negative-log IC50 (pIC50) is over 6.30.

Consider `N[C@@H](CC(=O)N1CCC(n2nnc3ccccc32)CC1)Cc1ccccc1F` [Example 19], for which the negative-log IC50 (pIC50) was over 6.30.

Turning to `N[C@@H](CC(=O)N1CCCC1Cc1cccc(Cl)c1)Cc1ccccc1F` (some centres unmarked) [Example 16], the pIC50 is over 6.30.

Turning to `N[C@@H](CC(=O)N1CCCC(C(F)(F)F)C1)Cc1ccccc1F` (some centres unmarked) [Example 46], the negative-log IC50 (pIC50) is 5.70 to 6.30.

In the case of `N[C@@H](CC(=O)N1CCCC1Cc1ccccc1)Cc1ccccc1F` (mixture of isomers) [Example 12], the pIC50 is over 6.30.

`N[C@@H](CC(=O)N1CCC(c2nnc(-c3ccc(F)cc3)o2)CC1)Cc1ccccc1F` [Example 28]: the pIC50 is over 6.30.

For `N[C@@H](CC(=O)N1CCC(C(=O)NCCO)CC1)Cc1ccccc1F` [Example 24], the pIC50 is 5.70 to 6.30.

Regarding `N[C@@H](CC(=O)N1CCC(c2nc(-c3cnccn3)no2)CC1)Cc1ccccc1F` [Example 26], the pIC50 was over 6.30.

`N[C@@H](CC(=O)N1CCC(N2CCOCC2)CC1)Cc1ccccc1F` [Example 25]: the pIC50 is 5.70 to 6.30.

Regarding `COc1ccccc1C1CCN(C(=O)C[C@H](N)Cc2ccccc2F)CC1` [Example 9], the pIC50 is over 6.30.

As to `N[C@@H](CC(=O)N1CCC(Nc2cccc(S(=O)(=O)C(F)(F)F)c2)CC1)Cc1ccccc1F` [Example 31], the negative logarithm of the IC50 (pIC50) is over 6.30.

Take `CCN(CC)C(=O)C1CCCN(C(=O)C[C@H](N)Cc2ccccc2F)C1` (some centres unmarked) [Example 11]: the negative-log IC50 (pIC50) was 5.70 to 6.30.

In the case of `N[C@@H](CC(=O)N1CCC(C(F)(F)F)CC1)Cc1ccccc1F` [Example 27], the pIC50 is over 6.30.

Turning to `N[C@@H](CC(=O)N1CCCC(Cc2ccccc2Cl)C1)Cc1ccccc1F` (some centres unmarked) [Example 33], the pIC50 is 5.70 to 6.30.

As for `Cc1ccc(S(=O)(=O)C2CCN(C(=O)C[C@H](N)Cc3ccccc3F)CC2)cc1` [Example 39], the pIC50 is over 6.30.

For `N[C@@H](CC(=O)N1CCC(c2nc3ccccc3[nH]2)CC1)Cc1ccccc1F` [Example 32], the pIC50 is over 6.30.

As for `N[C@@H](CC(=O)N1CC[C@H](NC(=O)c2ccccc2)C1)Cc1ccccc1F` [Example 53, N-((S)-1-((R)-3-amino-4-(2-fluorophenyl)butanoyl)pyrrolidin-3-yl)benzamide trifluoroacetic acid salt], the negative logarithm of the IC50 (pIC50) was over 6.30.

With `N[C@@H](CC(=O)N1CCCC(F)(F)C1)Cc1ccccc1F` [Example 30], the negative logarithm of the IC50 (pIC50) was 5.70 to 6.30.

On to `N[C@@H](CC(=O)N1CC[C@@H](NC(=O)C2CC2)C1)Cc1ccccc1F` [Example 54, N-((R)-1-((R)-3-amino-4-(2-fluorophenyl)butanoyl)pyrrolidin-3-yl)cyclopropane-carboxamide trifluoroacetic acid salt], for which the pIC50 was over 6.30.

Consider `N[C@@H](CC(=O)N1CC[C@H](NC(=O)C2CC2)C1)Cc1ccccc1F` [Example 52, N-((S)-1-((R)-3-amino-4-(2-fluorophenyl)butanoyl)pyrrolidin-3-yl)cyclopropane-carboxamide trifluoroacetic acid salt], for which the pIC50 is over 6.30.

As for `N[C@H](Cc1ccccc1F)CS(=O)(=O)N1CCC[C@H]1CNS(=O)(=O)c1ccccc1` [Example 56, N-{(S)-1-[(R)-2-Amino-3-(2-fluoro-phenyl)-propane-1-sulphonyl]-pyrrolidin-2-ylmethyl}-benzenesulfonamide], the pIC50 is over 6.30.

On to `N[C@@H](CC(=O)N1CCCC(Oc2ccccc2)C1)Cc1ccccc1F` (some centres unmarked) [Example 34], for which the pIC50 was over 6.30.

On to `N[C@@H](CC(=O)N1CCC(F)CC1)Cc1ccccc1F` [Example 44], for which the pIC50 was 5.70 to 6.30.

For the molecule `COc1cc(OC)nc(C2CCN(C(=O)C[C@H](N)Cc3ccccc3F)CC2)n1` [Example 29], the negative-log IC50 (pIC50) is over 6.30.

Take `N[C@@H](CC(=O)N1CC(C(=O)Nc2ccccn2)C1)Cc1ccccc1F` [Example 50]: the pIC50 was 5.70 to 6.30.

As to `N[C@@H](CC(=O)N1CC(N2CCN(c3ccccn3)CC2)C1)Cc1ccccc1F` [Example 51, (3R)-3-amino-4-(2-fluoro-phenyl)-1-[3-(4-pyridin-2-yl-piperazin-1-yl)-azetidin-1-yl]-butan-1-one trifluoroacetic acid], the pIC50 is 5.70 to 6.30.

For the molecule `N[C@@H](CC(=O)N1CCC(c2nnc(-c3cccc(C(F)(F)F)c3)o2)CC1)Cc1ccccc1F` [Example 41], the negative logarithm of the IC50 (pIC50) is 5.70 to 6.30.

In the case of `N[C@@H](CC(=O)N1CCC(c2cccc(Cl)c2)CC1)Cc1ccccc1F` [Example 42], the pIC50 is 5.70 to 6.30.

On to `N[C@@H](CC(=O)N1CCC(c2nc(-c3ccncc3)no2)CC1)Cc1ccccc1F` [Example 15], for which the pIC50 is over 6.30.

Take `N[C@@H](CC(=O)N1CCCC1Cc1cccnc1)Cc1ccccc1F` (some centres unmarked) [Example 13]: the pIC50 was over 6.30.

On to `N[C@@H](CC(=O)N1CCC(n2c(=O)[nH]c3ccccc32)CC1)Cc1ccccc1F` [Example 6], for which the negative-log IC50 (pIC50) is over 6.30.

As for `N[C@@H](CC(=O)N1CC(C(=O)NCc2ccccc2)C1)Cc1ccccc1F` [Example 49, 1-[3-(R)-amino-4-(2-fluoro-phenyl)-butyryl]-azetidine-3-carboxylic acid benzylamide], the pIC50 is 5.70 to 6.30.

Take `N[C@@H](CC(=O)N1CCC(CO)CC1)Cc1ccccc1F` [Example 2]: the negative-log IC50 (pIC50) was 5.70 to 6.30.

In the case of `N[C@@H](CC(=O)N1CCCC(F)C1)Cc1ccccc1F` (some centres unmarked) [Example 43], the pIC50 is 5.70 to 6.30.

On to `N[C@@H](CC(=O)N1CCC(N(C2CC2)S(=O)(=O)c2ccccc2)CC1)Cc1ccccc1F` [Example 3], for which the pIC50 is over 6.30.

Take `N[C@@H](CC(=O)N1CCC(n2c(=O)[nH]c3cc(Cl)ccc32)CC1)Cc1ccccc1F` [Example 14]: the negative-log IC50 (pIC50) was over 6.30.

For `N[C@@H](CC(=O)N1CCC[C@@H]1Cc1ccccc1)Cc1ccccc1F` (single isomer, unassigned) [Example 48], the pIC50 is over 6.30.

Consider `N[C@@H](CC(=O)N1CCC(N(C2CC2)S(=O)(=O)c2ccc(Cl)cc2)CC1)Cc1ccccc1F` [Example 36], for which the pIC50 is over 6.30.

As to `N[C@@H](CC(=O)N1CCCC1Cc1ccc(Cl)cc1)Cc1ccccc1F` (some centres unmarked) [Example 17], the pIC50 was over 6.30.

On to `N[C@@H](CC(=O)N1CCC(Cc2ccccc2)CC1)Cc1ccccc1F` [Example 1], for which the pIC50 is 5.70 to 6.30.

Consider `N[C@@H](CC(=O)N1CCC(c2ccccc2)CC1)Cc1ccccc1F` [Example 4], for which the negative logarithm of the IC50 (pIC50) is over 6.30.

Regarding `N[C@@H](CC(=O)N1CCC(N2CCCCC2=O)CC1)Cc1ccccc1F` [Example 8], the negative-log IC50 (pIC50) is 5.70 to 6.30.

For the molecule `N[C@@H](CC(=O)N1CCC(c2nc(-c3cccnc3)no2)CC1)Cc1ccccc1F` [Example 23], the pIC50 was over 6.30.

As for `N[C@@H](CC(=O)N1CCC(c2nc(-c3cccc(C(F)(F)F)c3)no2)CC1)Cc1ccccc1F` [Example 40], the negative logarithm of the IC50 (pIC50) was 5.70 to 6.30.

For the molecule `N[C@@H](CC(=O)N1CCC(c2ccccc2C(F)(F)F)CC1)Cc1ccccc1F` [Example 38], the pIC50 is over 6.30.

As to `N[C@@H](CC(=O)N1CCC(c2cccc(F)c2)CC1)Cc1ccccc1F` [Example 37], the pIC50 was 5.70 to 6.30.

For `N[C@@H](CC(=O)N1CCC(c2ccc(Cl)cc2)CC1)Cc1ccccc1F` [Example 35], the pIC50 was 5.70 to 6.30.

As for `N[C@@H](CC(=O)N1CC[C@@H](NC(=O)c2ccccc2)C1)Cc1ccccc1F` [Example 55, N-((R)-1-((R)-3-amino-4-(2-fluorophenyl)butanoyl)pyrrolidin-3-yl)benzamide trifluoroacetic acid salt], the negative logarithm of the IC50 (pIC50) was over 6.30.

Consider `N[C@@H](CC(=O)N1CCC[C@H]1Cc1ccccc1)Cc1ccccc1F` (single isomer, unassigned) [Example 47], for which the negative-log IC50 (pIC50) was over 6.30.

Regarding `N[C@@H](CC(=O)N1CCC(O)CC1)Cc1ccccc1F` [Example 10], the pIC50 was 5.70 to 6.30.

As to `CS(=O)(=O)c1ccc(-c2noc(C3CCN(C(=O)C[C@H](N)Cc4ccccc4F)CC3)n2)cc1` [Example 22], the pIC50 is over 6.30.

`COc1ccc(C2CCN(C(=O)C[C@H](N)Cc3ccccc3F)CC2)cc1` [Example 7]: the pIC50 is over 6.30.
